Measured values as given in patent publication US20260232682A1, “GSPT1 DEGRADER COMPOUNDS” (Captor Therapeutics S.A., priority 2023, published 2026).

Experiments:
[1] = target: T1, [GSPT1]-[compound of formula (I)]-[CRBN/DDB1] complex (Homo sapiens, UniProt P15170+Q96SW2); assay: AlphaLISA ternary complex formation assay (GSPT1); type: binding; conditions: 0.5 h; 1 μM compound; normalized to reference compound CC-885; read-out: Normalized AlphaLISA ternary complex average signal at 1 μM molecule
Experimental: The effect of the molecular glue compounds of the invention on the formation of a ternary complex composed of [GSPT1]-[compound of formula (I)]-[CRBN/DDB1] was investigated with two methods: AlphaLISA dose response assay or HTRF ternary complex assay.
Two types of protein solution were prepared: • 200 nM biotinylated GSPT1 (Table 3), 40 μg/ml AlphaScreen Streptavidin-coated Donor Beads in HBS (10 mM HEPES, 150 mM NaCL, pH 7.4) buffer with 0.1% Tween-20 and 1 mM DTT, • 200 nM 6×His-CRBN/DDB1, 40 μg/ml AlphaLISA Anti-6×His Acceptor beads in HBS buffer with 0.1% Tween-20 and 1 mM DTT.
(§1) The prepared solutions were incubated at room temperature for 30 min and then the solution containing the donor beads was mixed with the solution containing the acceptor beads.
(§2) The tested compounds were dispensed onto a white 384-well AlphaPlate 384 SW. DMSO was backfilled to all wells, resulting in a final DMSO content of 2%. Wells containing only DMSO served as background. Next, 10 μl of solution with donor and acceptor beads was added to the wells.
(§3) The plate was sealed with transparent film and shaken using a VibroTurbulator for 60 sec at room temperature, level 3. The plate was then spun down shortly (10 sec, 1000 rcf, room temperature) and incubated at 25° C. for 30 min.
(§4) The read-out was performed with PerkinElmer Enspire Multimode Plate Reader (method for AlphaLISA 384-well low volume, Filterset: λexc=680 nm, λem=615 nm).
(§5) The results were analyzed as follows: • 1) an average of luminescence for background signal was calculated and used as a negative control; • 2) average of the maximum measured luminescence for reference compound (structure shown in Table 3 below) was calculated and used as an internal positive control; • 3) raw luminescence values were normalized against positive and negative controls; • 4) Normalized responses to positive control were determined.

[2] = target: T1, [GSPT1]-[compound of formula (I)]-[CRBN/DDB1] complex; assay: HTRF ternary complex assay (GSPT1); type: binding; conditions: read-out: HTRF ternary complex Average pEC50 by molecule (converted)
Experimental: The effect of the molecular glue compounds of the invention on the formation of a ternary complex composed of [GSPT1]-[compound of formula (I)]-[CRBN/DDB1] was investigated.
Mix solution of proteins and reagents was prepared: • 48 nM GSPT1, 52.8 nM 6×His-CRBN/DDB1, 3 nM of Streptavidin-Eu cryptate ([…]) and 6.67 nM of Anti-6×his-d2 ([…]) was prepared in PPI Europium detection buffer (purchased from Cisbio) with 1 mM DTT.
The tested compounds in dose-response were dispensed onto a white 384-well low volume plate (Greiner, 784075). DMSO was backfilled to all wells, resulting in a final DMSO content of 0.5%. Wells containing only DMSO served as background.
The plate was sealed with transparent film and shaken using a VibroTurbulator for 60 sec at level 3.
The plate was then spun down shortly (10 sec, 1000 rcf) and incubated at 25° C. for 180 min.
The read-out was performed with plate reader (Pherastar, BMG Labtech) in time resolved fluorescence mode. Filter settings: TR 337 665 620.
The results were analyzed as follows: • 1) an average of fluorescence for background signal was calculated and used as a negative control; • 2) raw fluorescence values for tested compounds were normalized against negative controls; • 3) saturation curve was fitted to specific binding with Hill slope model; • 4) EC50 and pEC50 values were determined.

[3] = target: T2, [SALL4 ZF2]-[compound]-[CRBN/DDB1] ternary complex (Homo sapiens, UniProt Q96SW2+Q9UJQ4); assay: AlphaLISA assay for off-target recruitment detection, SALL4 ZF2; type: binding; conditions: 1 μM compound; normalized to Lenalidomide; read-out: Normalized ternary complex response, SALL4 ZF2
T2 construct: SALL4 ZF2
Experimental: (§6) The ability of the molecular glue compounds of the invention to mediate the proximity of CRBN with its known neo-substrates (shown in Table 3) was assessed using AlphaLISA to detect the formation of a [neo-substrate]-[compound of formula (I)]-[CRBN/DDB1] ternary complex.
(§7) Two types of protein solution were prepared: • neo-substrate, 40 μg/ml AlphaScreen Donor Beads (Table 3) in PBS (10 mM phosphate buffer, 137 mM NaCL, 2.7 mM KCl, pH 7.4) buffer supplemented with Tween-20 (Table 3) and 1 mM DTT, • 200 nM 6×His-CRBN/DDB1, 40 μg/ml AlphaLISA Anti-6×His Acceptor beads in PBS buffer with Tween-20 (Table 3) and 1 mM DTT.
as §1, §2, §3, §4
as §5, with “2) an” for “2)”, “compound (Table 3)” for “compound (structure shown in Table 3 below)”, “to reference molecular glue” for “to positive control”

[4] = target: T3, [IKZF2 ZF2]-[compound]-[CRBN/DDB1] ternary complex (Homo sapiens, UniProt Q96SW2+Q9UKS7); assay: AlphaLISA assay for off-target recruitment detection, IKZF2 ZF2; type: binding; conditions: 1 μM compound; normalized to Helios modulator; read-out: Normalized ternary complex response, IKZF2 ZF2
T3 construct: IKZF2 ZF2
Experimental: as §6, §7, §1, §2, §3, §4
as §5, with “2) an” for “2)”, “compound (Table 3)” for “compound (structure shown in Table 3 below)”, “to reference molecular glue” for “to positive control”

[5] = target: [CK1α]-[compound]-[CRBN/DDB1] ternary complex (Homo sapiens, UniProt P48729+Q96SW2); assay: AlphaLISA assay for off-target recruitment detection, CK1α; type: binding; conditions: 1 μM compound; normalized to FPFT-2216; read-out: Normalized ternary complex response, CK1α
Experimental: as §6, §7, §1, §2, §3, §4
as §5, with “2) an” for “2)”, “compound (Table 3)” for “compound (structure shown in Table 3 below)”, “to reference molecular glue” for “to positive control”

GSPT1-HiBiT HEK293 cells = assay: Cell Viability-CTG assay accompanying the Nano-Glo HiBiT assay; type: cell-based; conditions: 6 hours treatment, viability of GSPT1-HiBiT HEK293 cells
Experimental: In parallel, the Cell Viability-CTG assay was performed to ensure that the potential decrease of the luminescent signal observed in the Nano-Glo HiBiT assay is a result of protein degradation and not a result of decreasing cell viability. For CTG assay accompanying the Nano-Glo HiBiT assay, cells were cultured, seeded and treated as described above. After 6 hours of incubation (37° C., 5% CO2), plates were removed from the incubator and let to equilibrate to RT. Luminescent signal detection was conducted using the CellTiter-Glo Lumiescent Cell Viability Assay (Promega, cat. nr G7573). 10 μL of the Cell Titer Glo reagent was added per well, plates were shaken to facilitate lysis (460 rpm, 4 min, RT) and incubated in the dark for the following 8 min. Luminescence was read using the CLARIOstar multimode plate reader (BMG LABTECH). The raw data (the relative luminescence unit values, RLU) were uploaded under the relevant protocol and analysed in CDDVault data management platform, in a manner similar to the description above. The Mean Minimum values were calculated in CDDVault using non-linear regression and appropriate equations.

Sequence of [CK1α]-[compound]-[CRBN/DDB1] ternary complex (P48729 whole entry): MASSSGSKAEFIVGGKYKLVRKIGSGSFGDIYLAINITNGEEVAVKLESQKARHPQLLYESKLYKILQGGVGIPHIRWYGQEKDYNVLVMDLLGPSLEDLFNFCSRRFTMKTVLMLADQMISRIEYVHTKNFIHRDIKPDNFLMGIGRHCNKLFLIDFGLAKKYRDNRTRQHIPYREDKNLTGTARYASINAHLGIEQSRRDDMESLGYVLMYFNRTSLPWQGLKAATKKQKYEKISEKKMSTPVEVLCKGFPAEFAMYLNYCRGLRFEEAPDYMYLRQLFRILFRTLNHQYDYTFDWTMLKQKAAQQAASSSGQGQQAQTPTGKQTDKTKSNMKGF
Sequence of [CK1α]-[compound]-[CRBN/DDB1] ternary complex (Q96SW2 whole entry): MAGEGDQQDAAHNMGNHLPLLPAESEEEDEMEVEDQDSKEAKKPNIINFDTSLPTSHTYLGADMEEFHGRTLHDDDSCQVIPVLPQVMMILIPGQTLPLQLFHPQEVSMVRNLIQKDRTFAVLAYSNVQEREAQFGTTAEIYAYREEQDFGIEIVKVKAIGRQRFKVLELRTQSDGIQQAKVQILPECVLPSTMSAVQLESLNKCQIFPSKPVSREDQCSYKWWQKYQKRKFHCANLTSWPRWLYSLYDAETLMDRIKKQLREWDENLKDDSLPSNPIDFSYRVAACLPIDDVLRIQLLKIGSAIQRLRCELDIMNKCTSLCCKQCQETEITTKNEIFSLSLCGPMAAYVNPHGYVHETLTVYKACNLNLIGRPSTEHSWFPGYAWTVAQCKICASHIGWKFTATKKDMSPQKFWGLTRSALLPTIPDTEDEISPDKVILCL
Sequence of [CK1α]-[compound]-[CRBN/DDB1] ternary complex (Q16531 whole entry partner): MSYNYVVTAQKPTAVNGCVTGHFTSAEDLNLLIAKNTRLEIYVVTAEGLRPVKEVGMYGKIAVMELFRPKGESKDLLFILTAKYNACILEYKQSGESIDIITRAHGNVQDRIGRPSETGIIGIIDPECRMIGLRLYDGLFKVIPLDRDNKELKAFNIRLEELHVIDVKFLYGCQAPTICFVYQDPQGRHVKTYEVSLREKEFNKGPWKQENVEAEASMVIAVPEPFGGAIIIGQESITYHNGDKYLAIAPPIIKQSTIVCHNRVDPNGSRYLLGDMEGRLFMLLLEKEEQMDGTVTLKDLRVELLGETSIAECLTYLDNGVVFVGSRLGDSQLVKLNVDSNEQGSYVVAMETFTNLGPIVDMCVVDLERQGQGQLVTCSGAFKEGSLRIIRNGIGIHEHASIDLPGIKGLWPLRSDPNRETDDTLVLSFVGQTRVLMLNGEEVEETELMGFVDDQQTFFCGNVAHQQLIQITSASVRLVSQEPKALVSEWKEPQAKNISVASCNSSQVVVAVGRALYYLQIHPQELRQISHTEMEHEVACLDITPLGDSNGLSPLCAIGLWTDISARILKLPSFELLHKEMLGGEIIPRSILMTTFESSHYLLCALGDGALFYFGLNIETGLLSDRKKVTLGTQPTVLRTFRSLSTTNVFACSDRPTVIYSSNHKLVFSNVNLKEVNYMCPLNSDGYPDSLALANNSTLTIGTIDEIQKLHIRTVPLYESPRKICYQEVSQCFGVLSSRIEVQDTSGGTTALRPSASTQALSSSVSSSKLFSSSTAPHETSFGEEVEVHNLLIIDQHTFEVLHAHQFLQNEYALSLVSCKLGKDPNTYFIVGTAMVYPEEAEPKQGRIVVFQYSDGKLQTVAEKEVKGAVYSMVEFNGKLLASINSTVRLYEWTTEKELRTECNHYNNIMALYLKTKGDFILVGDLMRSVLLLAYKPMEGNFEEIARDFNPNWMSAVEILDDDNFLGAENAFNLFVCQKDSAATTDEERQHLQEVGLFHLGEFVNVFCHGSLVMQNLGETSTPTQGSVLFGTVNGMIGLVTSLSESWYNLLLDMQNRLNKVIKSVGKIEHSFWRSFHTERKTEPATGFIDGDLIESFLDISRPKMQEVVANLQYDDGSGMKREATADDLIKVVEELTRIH
T3 sequence (Q9UKS7 140-162 limits assumed): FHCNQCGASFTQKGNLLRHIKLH
T3 sequence (Q96SW2 whole entry): as the sequence (Q96SW2 whole entry) above
T3 sequence (Q16531 whole entry partner): as the sequence (Q16531 whole entry partner) above
T2 sequence (Q9UJQ4 410-432 limits assumed): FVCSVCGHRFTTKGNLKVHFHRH
T2 sequence (Q96SW2 whole entry): as the sequence (Q96SW2 whole entry) above
T2 sequence (Q16531 whole entry partner): as the sequence (Q16531 whole entry partner) above
T1 sequence (P15170 whole entry): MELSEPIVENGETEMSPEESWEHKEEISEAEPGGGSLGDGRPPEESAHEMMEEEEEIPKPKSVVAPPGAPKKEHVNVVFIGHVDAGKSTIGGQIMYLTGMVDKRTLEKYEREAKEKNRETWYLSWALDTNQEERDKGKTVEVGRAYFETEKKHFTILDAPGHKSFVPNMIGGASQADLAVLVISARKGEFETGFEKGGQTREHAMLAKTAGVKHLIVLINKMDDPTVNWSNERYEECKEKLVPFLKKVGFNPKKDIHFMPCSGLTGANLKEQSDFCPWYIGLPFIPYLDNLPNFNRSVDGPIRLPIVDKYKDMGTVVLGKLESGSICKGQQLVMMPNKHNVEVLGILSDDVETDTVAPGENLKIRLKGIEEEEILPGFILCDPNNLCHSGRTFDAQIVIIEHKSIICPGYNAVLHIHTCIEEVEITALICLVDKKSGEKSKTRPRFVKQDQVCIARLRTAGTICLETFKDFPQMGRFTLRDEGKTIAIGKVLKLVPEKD
T1 sequence (Q96SW2 whole entry): as the sequence (Q96SW2 whole entry) above
T1 sequence (Q16531 whole entry partner): as the sequence (Q16531 whole entry partner) above

SMILES	activation at 1 µM [1] [%]	EC50 [2] [µM]	activation at 1 µM [3] [%]	activation at 1 µM [4] [%]	activation at 1 µM [5] [%]	CTG assay Mean minimum (GSPT1-HiBiT HEK293 cells)
Cc1ccc(NC(=S)NCc2ccc3cc(C4CCC(=O)NC4=O)c(C)nc3c2)cc1Cl (stereo not shown) [Compound 2, 1-(3-chloro-4-methylphenyl)-3-((3-(2,6-dioxopiperidin-3-yl)-2-methylquinolin-7-yl)methyl)thiourea]	10 to 50	> 3.16	< 10	< 10	< 10	
Cc1ccc(NC(=O)OCc2ccc3cc(C4CCC(=O)NC4=O)c(C)nc3c2)cc1Cl (stereo not shown) [Compound 4, (3-(2,6-dioxopiperidin-3-yl)-2-methylquinolin-7-yl)methyl (3-chloro-4-methylphenyl)carbamate]	> 50	0.316 to 3.16	< 10	< 10	< 10	++++ (++++≥75% of viability of the HiBiT-GSPT1 HEK293 cells)
Cc1ccc(NC(=O)OCc2ccc3nc(C)c(C4CCC(=O)NC4=O)cc3c2)cc1Cl (stereo not shown) [Compound 5, (3-(2,6-dioxopiperidin-3-yl)-2-methylquinolin-6-yl)methyl (3-chloro-4-methylphenyl)carbamate]	> 50	> 3.16	25 to 50	10 to 25	< 10	
Cc1nc2cc(COC(=O)Nc3cc(OC(F)(F)F)ccc3F)ccc2cc1C1CCC(=O)NC1=O (stereo not shown) [Compound 6, (3-(2,6-dioxopiperidin-3-yl)-2-methylquinolin-7-yl)methyl (2-fluoro-5-(trifluoromethoxy)phenyl)carbamate]	10 to 50	0.316 to 3.16	< 10	< 10	< 10	++++ (++++≥75% of viability of the HiBiT-GSPT1 HEK293 cells)
Cc1nc2cc(COC(=O)Nc3ccc(C(C)(C)C)cc3)ccc2cc1C1CCC(=O)NC1=O (stereo not shown) [Compound 8, (3-(2,6-dioxopiperidin-3-yl)-2-methylquinolin-7-yl)methyl (4-(tert-butyl)phenyl)carbamate]	> 50	0.316 to 3.16	< 10	< 10	< 10	++++ (++++≥75% of viability of the HiBiT-GSPT1 HEK293 cells)

Further lines, with some results ahead:

activation at 1 µM [1] [%]	EC50 [2] [µM]	activation at 1 µM [3] [%]	activation at 1 µM [4] [%]	activation at 1 µM [5] [%]	SMILES	CTG assay Mean minimum (GSPT1-HiBiT HEK293 cells)
10 to 50	0.316 to 3.16	< 10	< 10	< 10	Cc1nc2cc(COC(=O)Nc3cccc(C(C)(C)C)c3)ccc2cc1C1CCC(=O)NC1=O (stereo not shown) [Compound 9, (3-(2,6-dioxopiperidin-3-yl)-2-methylquinolin-7-yl)methyl (3-(tert-butyl)phenyl)carbamate]	++++ (++++≥75% of viability of the HiBiT-GSPT1 HEK293 cells)
10 to 50	< 0.316	< 10	< 10	< 10	Cc1nc2cc(COC(=O)Nc3ccc(C(C)(C)C)c(Cl)c3)ccc2cc1C1CCC(=O)NC1=O (stereo not shown) [Compound 10, (3-(2,6-dioxopiperidin-3-yl)-2-methylquinolin-7-yl)methyl (4-(tert-butyl)-3-chlorophenyl)carbamate]	++++ (++++≥75% of viability of the HiBiT-GSPT1 HEK293 cells)
> 50	0.316 to 3.16	< 10	< 10	< 10	COc1ccc(NC(=O)OCc2ccc3cc(C4CCC(=O)NC4=O)c(C)nc3c2)cc1Cl (stereo not shown) [Compound 11, (3-(2,6-dioxopiperidin-3-yl)-2-methylquinolin-7-yl)methyl (3-chloro-4-methoxyphenyl)carbamate]	++++ (++++≥75% of viability of the HiBiT-GSPT1 HEK293 cells)
10 to 50	0.316 to 3.16	< 10	< 10	< 10	Cc1nc2cc(COC(=O)Nc3ccc(Cl)c(Cl)c3)ccc2cc1C1CCC(=O)NC1=O (stereo not shown) [Compound 12, (3-(2,6-dioxopiperidin-3-yl)-2-methylquinolin-7-yl)methyl (3,4-dichlorophenyl)carbamate]	++++ (++++≥75% of viability of the HiBiT-GSPT1 HEK293 cells)
10 to 50	0.316 to 3.16	< 10	< 10	< 10	Cc1nc2cc(COC(=O)Nc3ccc4c(c3)OCO4)ccc2cc1C1CCC(=O)NC1=O (stereo not shown) [Compound 14, (3-(2,6-dioxopiperidin-3-yl)-2-methylquinolin-7-yl)methyl benzo[d][1,3]dioxol-5-ylcarbamate]	++++ (++++≥75% of viability of the HiBiT-GSPT1 HEK293 cells)
10 to 50	0.316 to 3.16	< 10	< 10	< 10	Cc1nc2cc(COC(=O)Nc3ccc4c(c3)OCCO4)ccc2cc1C1CCC(=O)NC1=O (stereo not shown) [Compound 15, (3-(2,6-dioxopiperidin-3-yl)-2-methylquinolin-7-yl)methyl (2,3-dihydrobenzo[b][1,4]dioxin-6-yl)carbamate]	++++ (++++≥75% of viability of the HiBiT-GSPT1 HEK293 cells)
